System: mdx mouse EDL muscle
Assay: Phosphoprotein array analysis (Cell Signaling Phospho Antibody Array)
Settings: T vs C
Experimental: mdx mouse EDL muscle was prepared for ex vivo analysis as described (n = 5). Muscles were incubated for 1 hour with DMSO or EDG-5506 (5 μM) and then flash frozen in liquid nitrogen. Tissue preparation and analysis were performed as recommended by the manufacturer (Cell Signaling Phospho Antibody Array, Full Moon Biosystems).

Compound: O=c1ccc(-c2cnc(OCC(F)(F)F)nc2)nn1Cc1cncc(F)c1 [EDG-5506]
- Fold Change between Samples T/C: Tau (Phospho-Ser396): 0.90
- Fold Change between Samples T/C: VEGFR2 (Phospho-Tyr1175): 0.84
- Fold Change between Samples T/C: Zap-70 (Phospho-Tyr319): 1.04
- Fold Change between Samples T/C: c-Jun (Phospho-Ser73): 0.91
- Fold Change between Samples T/C: p44/42 MAP Kinase (Phospho-Tyr204): 0.88
- Fold Change between Samples T/C: p53 (Phospho-Ser15): 0.20
- Ratio (T/C): 4E-BP1 (Phospho-Thr45) to total 4E-BP1 (Ab-45) (phospho/total): 0.8337
- Ratio (T/C): 14-3-3 theta/tau (Phospho-Ser232) to total 14-3-3 zeta/delta (Ab-232) (phospho/total): 0.9814
- Ratio (T/C): ACC1 (Phospho-Ser80) to total ACC1 (Ab-80) (phospho/total): 0.9544
- Ratio (T/C): AKT1 (Phospho-Ser473) to total AKT1 (Ab-308) (phospho/total): 0.8575
- Ratio (T/C): AKT1S1 (Phospho-Thr246) to total AKT1S1 (Ab-246) (phospho/total): 1.16
- Ratio (T/C): AMPKbeta1 (Phospho-Ser182) to total AMPKbeta1 (Ab-182) (phospho/total): 0.902
- Ratio (T/C): ASK1 (Phospho-Ser966) to total ASK1 (Ab-966) (phospho/total): 0.799
- Ratio (T/C): ATF2 (Phospho-Ser62/44) to total ATF2 (Ab-62/44) (phospho/total): 0.3856
- Ratio (T/C): Abl1 (Phospho-Thr754/735) to total Abl1 (Ab-754/735) (phospho/total): 1.124
- Ratio (T/C): Actin Pan(a/b/g) (Phospho-Tyr55/53) to total Actin Pan(a/b/g) (Ab-55/53) (phospho/total): 0.9642
- Ratio (T/C): B-RAF (Phospho-Ser446) to total B-RAF (Ab-598) (phospho/total): 0.9669
- Ratio (T/C): BAX (Phospho-Thr167) to total Bax (phospho/total): 0.8854
- Ratio (T/C): BCL-XL (Phospho-Ser62) to total BCL-XL (Ab-47) (phospho/total): 0.5743
- Ratio (T/C): BID (Phospho-Ser78) to total BID (Ab-78) (phospho/total): 0.7661
- Ratio (T/C): BLNK (Phospho-Tyr96) to total BLNK (Ab-96) (phospho/total): 0.53
- Ratio (T/C): BRCA1 (Phospho-Ser1423) to total BRCA1 (Ab-1524) (phospho/total): 0.7749
- Ratio (T/C): CDC25C (Phospho-Ser216) to total CDC25C (Ab-216) (phospho/total): 0.4323
- Ratio (T/C): CDK1/CDC2 (Phospho-Tyr15) to total CDK1/CDC2 (Ab-15) (phospho/total): 0.7557
- Ratio (T/C): CREB (Phospho-Ser133) to total CREB (Ab-133) (phospho/total): 1.041
- Ratio (T/C): CaMK2-beta/gamma/delta (Phospho-Thr287) to total CaMK2-beta/gamma/delta (Ab-287) (phospho/total): 0.6524
- Ratio (T/C): CaMK2A (Phospho-Thr286) to total CaMK2A (Ab-286) (phospho/total): 0.848
- Ratio (T/C): Caspase 1 (Phospho-Ser376) to total Caspase 1 (Ab-376) (phospho/total): 0.6605
- Ratio (T/C): Caspase 8 (Phospho-Ser347) to total Caspase 8 (Ab-347) (phospho/total): 1.051
- Ratio (T/C): Caspase 9 (Phospho-Ser196) to total Caspase 9 (Ab-196) (phospho/total): 0.4054
- Ratio (T/C): Catalase (Phospho-Tyr385) to total Catalase (Ab-385) (phospho/total): 0.7422
- Ratio (T/C): Catenin beta (Phospho-Thr41/Ser45) to total Catenin beta (Ab-37) (phospho/total): 0.6858
- Ratio (T/C): Chk1 (Phospho-Ser286) to total Chk1 (Ab-286) (phospho/total): 0.7615
- Ratio (T/C): Chk2 (Phospho-Thr68) to total Chk2 (Ab-68) (phospho/total): 0.4403
- Ratio (T/C): CrkII (Phospho-Tyr221) to total CrkII (Ab-221) (phospho/total): 0.7162
- Ratio (T/C): Cyclin D1 (Phospho-Thr286) to total Cyclin D1 (Ab-286) (phospho/total): 1.068
- Ratio (T/C): Cyclin E1 (Phospho-Thr77) to total Cyclin E1 (Ab-77) (phospho/total): 0.8189
- Ratio (T/C): DARPP-32 (Phospho-Thr34) to total DARPP-32 (Ab-34) (phospho/total): 0.8988
- Ratio (T/C): EEF2 (Phospho-Thr56) to total EEF2 (Ab-56) (phospho/total): 1.324
- Ratio (T/C): EGFR (Phospho-Tyr869) to total EGFR (Ab-1172) (phospho/total): 1.314
- Ratio (T/C): EGFR (Phospho-Tyr1172) to total EGFR (Ab-1172) (phospho/total): 0.9484
- Ratio (T/C): Elk1 (Phospho-Ser383) to total Elk1 (Ab-389) (phospho/total): 0.8083
- Ratio (T/C): FAK (Phospho-Ser910) to total FAK (Ab-910) (phospho/total): 0.6171
- Ratio (T/C): FGFR1 (Phospho-Tyr654) to total FGFR1 (Ab-766) (phospho/total): 1.2323
- Ratio (T/C): FKHRL1/FOXO3A (Phospho-Ser253) to total FKHRL1/FOXO3A (Ab-253) (phospho/total): 0.5092
- Ratio (T/C): FOXO1/3/4-pan (Phospho-Thr24/32) to total FOXO1/3/4-pan (Ab-24/32) (phospho/total): 0.8412
- Ratio (T/C): GRK2 (Phospho-Ser29) to total GRK2 (Ab-29) (phospho/total): 0.6549
- Ratio (T/C): GSK3 beta (Phospho-Ser9) to total GSK3 beta (phospho/total): 0.6837
- Ratio (T/C): HDAC1 (Phospho-Ser421) to total HDAC1 (Ab-421) (phospho/total): 1.576
- Ratio (T/C): HDAC2 (Phospho-Ser394) to total HDAC2 (Ab-394) (phospho/total): 0.8716
- Ratio (T/C): HER2 (Phospho-Tyr1221/Tyr1222) to total HER2 (Ab-1221/1222) (phospho/total): 0.7289
- Ratio (T/C): HER2 (Phospho-Tyr1248) to total HER2 (Ab-1221/1222) (phospho/total): 0.9858
- Ratio (T/C): HSP27 (Phospho-Ser82) to total HSP27 (Ab-82) (phospho/total): 1.177
- Ratio (T/C): HSP90B (Phospho-Ser226) to total HSP90B (Ab-254) (phospho/total): 0.9521
- Ratio (T/C): IKK alpha/beta (Phospho-Ser180/181) to total IKK alpha/beta (Ab-180/181) (phospho/total): 0.9407
- Ratio (T/C): IKK-beta (Phospho-Tyr188) to total IKK-beta (Ab-199) (phospho/total): 0.6267
- Ratio (T/C): IKK-beta (Phospho-Tyr199) to total IKK-beta (Ab-199) (phospho/total): 0.8262
- Ratio (T/C): IKK-gamma (Phospho-Ser31) to total IKK-gamma (Ab-31) (phospho/total): 1.02
- Ratio (T/C): IL-4R/CD124 (Phospho-Tyr497) to total IL-4R/CD124 (Ab-497) (phospho/total): 0.9976
- Ratio (T/C): IL-10R-alpha (Phospho-Tyr496) to total IL-10R-alpha (Ab-496) (phospho/total): 0.6514
- Ratio (T/C): IRS-1 (Phospho-Ser312) to total IRS-1 (Ab-312) (phospho/total): 0.9305
- Ratio (T/C): IkB-alpha (Phospho-Ser32/36) to total IkB-alpha (Ab-32/36) (phospho/total): 1.258
- Ratio (T/C): IkB-epsilon (Phospho-Ser22) to total IkB-epsilon (Ab-22) (phospho/total): 0.98

— PMC10178848, “Modulating fast skeletal muscle contraction protects skeletal muscle in animal models of Duchenne muscular dystrophy” (The Journal of Clinical Investigation, 2023)
